In paper PMC9760738, “Pharmacokinetics, absorption, distribution, metabolism and excretion of the MEK inhibitor zapnometinib in rats” (Frontiers in Pharmacology, 2022):
Where two headings read alike, the source gives them in different places.

Tests used:
[1] = Metabolite profiling of plasma extracts by radio-HPLC (Group 3); format: in vivo, rat; conditions: for concentration at 2 h / concentration at 8 h: rat, plasma, oral, 30 mg/kg, read-out: Concentration in plasma extract
Experimental: (§1) Metabolite profiling was performed by HPLC analysis according to the company’s SOP of plasma (Group 3), urine (Group 2) and feces (Group 2) samples. Briefly, for metabolite profiling and identification, radioactivity (cpm) was measured in HPLC eluent fractions that had previously been collected at 12 s intervals for the duration of the run (65 min) into 96-well Deep Well LumaPlates and dried in a centrifugal evaporator. A Microbeta2 scintillation counter was used to count each plate, with wells simultaneously counted for 2 min, after an initial 5 min delay. A subsample of plasma was analyzed (ca 2 ml) taken from individual animals to provide representative samples, for each sex, at 2, 8 and 168 h post dose (n = 6). Equal proportions of the total urine weight voided from Group 2 animals was pooled to provide representative samples for each sex at 0–6 h, 6–24 h and 24–48 h post dose (n = 6). Equal proportions of the total feces homogenate generated from the samples voided by the three rats (Group 2) were pooled to provide representative samples for each sex at 0–24 and 24–48 h post dose ([…]). Sample preparation was carried out due to the company’s SOPs (see Supplementary Methods). The extractability was ≥95.0% (95.0–100%) TRR (Total Radioactive Residue) for plasma and ≥88.3% (88.3%–91.3%) TRR for feces. As reference, a standard solution of zapnometinib (0.1 mg/ml in acetonitrile) was used. To assess HPLC method suitability, a column recovery was assessed on each representative sample (one per matrix). The recovery of radioactivity from the HPLC column was determined by collecting the column eluent, following an injection of a representative sample (one per matrix), and determining the radioactive content by submitting aliquots for LSC analysis. The results of these analyses were between 93.8%–105.1% column recoveries.
(§2) Next, radioactive metabolic components of zapnometinib in urine, plasma and feces extracts were isolated and profiled. The components were quantified by fraction collection/scintillation analysis, as appropriate to the radioactivity concentrations. Mass spectroscopy was used to propose identities of the major circulatory and excreted metabolites, and to correlate the metabolites detected in the different matrices. Components identified by LC-MS/MS were related to the quantified HPLC analysis by comparison of related radiochromatograms and comparison of elution order. Representative HPLC radiochromatograms of pooled feces extracts collected during 0–24 and 24–48 h post dose from male and female rats (which reveal the main metabolites) were qualitatively similar with some minor sex differences (Figure 3).

[2] = QWBA tissue radioactivity, single oral 30 mg/kg, female partially pigmented rats (Group 3); Table 6 columns c2-c8 = 0.5, 2, 4, 8, 24, 72, 168 h; format: in vivo, rat; conditions: 2 h
Experimental: The whole-body autoradiography techniques by Ullberg and Larsson was used in this study ([Ullberg and Larsson 1981]). Following a single oral administration of [^14C]-zapnometinib to seven male and seven female partially pigmented rats (Group 3) and four male albino rats (Group 4), one animal per sex (where appropriate) was killed at the following time points post dose: Group 3 (pigmented): 0.5, 2, 4, 8, 24, 72, and 168 h, Group 4 (albino): 2, 24, 72 and 168 h. At sacrifice, each rat was anaesthetized with isoflurane and a blood sample (ca 5 ml) was collected by cardiac puncture into a tube containing K2EDTA anticoagulant. Blood was centrifuged at 2000 ×g for 10 min at 4°C to obtain plasma, which was transferred into plain tubes pending measurement of radioactivity concentration. The blood cells were also retained for analysis.
The rat carcasses were immediately attached to a plate and frozen in a bath of n-heptane and solid CO2 at ca –80°C and then stored at –20 ± 10°C until taken for sectioning. […] [^14C]-Blood standards containing six different known concentrations of radioactivity were used to construct the calibration line for the quantitative determination of tissue concentrations of radioactivity. […] The electronic images of all sections were analyzed at Labcorp–Huntingdon using a validated image analysis package (Seescan Densitometry software, version 2.0). […]

[3] = Metabolite profiling of pooled feces extracts by radio-HPLC (Group 2); format: in vivo, rat; conditions: for Proportion of feces sample radioactivity: 24-48 h
Experimental: as §1
as §2, with “3). […]” for “3).”
times with the following solvents following the same procedure: Extract 2 – Acetonitrile/methanol 4:1 (v/v); Extract 3 – Acetonitrile/Water 1:1 (v/v). Duplicate weighed aliquots of each supernatant (ca 0.1 mL) were mixed directly with Ultima Gold scintillation cocktail for measurement of radioactivity concentrations. The extracted residue was allowed to air dry and the total weight was recorded. Duplicate weighed portions (ca 0.05g) were taken for radioassay after oxidation. The extracts were combined and concentrated under a constant stream of nitrogen gas to near dryness and reconstituted in acetonitrile/0.1% aqueous formic acid, 1:1 (v/v) by vortex mixing, sonication and centrifugation at 10000 × g for 5 min at 4°C.
The concentrates were weighed, and duplicate weighed aliquots (0.025 – 0.05 mL) taken for measurement of radioactivity to calculate recovery following concentration. An aliquot of each concentrated extract was injected into the HPLC. […]
(100 mL) in purified water (600 mL) and methanol (300 mL). After measurement of total sample weight (as appropriate), replicate portions of diluted dose solutions (ca 0.1 mL), plasma (ca 0.05 – 0.25 mL), urine (ca 0.05 – 0.25 mL), expired air trap solution (ca 1 mL) and cage wash (ca 1 mL) were mixed directly with Ultima Gold scintillation cocktail (5 mL; 15 mL for […]

[4] = parameters: method as in Lorusso et al., 2005; conditions: acid metabolite after CI-1040 dosing in patients; ref Lorusso et al., 2005; cited from earlier work
[5] = Plasma protein binding assay, human plasma; format: in vitro ADME; conditions: data not shown

O=C(O)c1ccc(F)c(F)c1Nc1ccc(I)cc1Cl [zapnometinib, 2-(2-Chloro-4-iodophenylamino)-3,4-difluorobenzoic acid]
Proportion in plasma extract ([1]; 2 hours, female rats): 97.9 % sample
Proportion in plasma extract ([1]; 2 hours, male rats): 92.0 % sample
Proportion in plasma extract ([1]; 8 hours, female rats): 88.7 % sample
Proportion in plasma extract ([1]; 8 hours, male rats): 92.5 % sample
Extractability of plasma radioactivity ([1]; all measured time points): > 90 % TRR
Plasma concentration of unchanged zapnometinib ([1]; by 168 h post dose): below the limit of quantification
concentration at 2 h ([1]; 2 hours, female rats): 78400 ng/g
concentration at 2 h ([1]; 2 hours, male rats): 64400 ng/g
concentration at 8 h ([1]; 8 hours, female rats): 80700 ng/g
concentration at 8 h ([1]; 8 hours, male rats): 72100 ng/g
Radioactivity in all remaining tissues [2]: ≤ 74.4 µg equivs/g
Amount in pooled feces extracts ([3]; 0-24 hours, female rats): 19.87 % Dose
Amount in pooled feces extracts ([3]; 0-24 hours, male rats): 19.28 % Dose
Proportion of feces sample radioactivity ([3]; female rats): 28.5 % sample radioactivity
Proportion of feces sample radioactivity ([3]; male rats): 21.5 % sample radioactivity
Amount in pooled feces extracts ([3]; 24-48 hours, female rats): 6.30 % Dose
Amount in pooled feces extracts ([3]; 24-48 hours, male rats): 2.15 % Dose
Amount in pooled feces extracts ([3]; Total (0-48 hours), female rats): 26.17 % Dose
Plasma concentrations relative to those of CI-1040 [4]: approximately 30 fold
Protein binding [5]: high protein binding
Unbound fraction [5]: very low
